Reference: ChEMBL document CHEMBL1201862, “PubChem BioAssay data set” (2004)
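Method: 48-hour compound exposure of cells in 96-well plates, five concentrations, linear interpolation of endpoints. GI50 marks 50% less growth.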 Active and inactive are the calls of the source. Rule as the data show it: active = GI50 up to about 1.1 µM and inactive = higher.

How the values were obtained:
Assay in all cases: DTP human tumour cell line panel, 48 h
MDA-MB-231 = system: MDA-MB-231
SF-539 = system: SF-539
DU-145 = system: DU-145
HCT-15 = system: HCT-15
KM12 = system: KM12
SK-MEL-2 = system: SK-MEL-2
CAKI-1 = system: CAKI-1
CCRF-CEM = system: CCRF-CEM
HL-60 = system: HL-60
UACC-62 = system: UACC-62
NCI-H460 = system: NCI-H460
A549 = system: A549
Hs-578T = system: Hs-578T
MDA-MB-435 = system: MDA-MB-435
COLO 205 = system: COLO 205
RPMI-8226 = system: RPMI-8226
ACHN = system: ACHN
SN12C = system: SN12C
NCI-H522 = system: NCI-H522
Malme-3M = system: Malme-3M

Compound | GI50 (MDA-MB-231) | GI50 (SF-539) | GI50 (DU-145) | GI50 (HCT-15) [µM] | GI50 (KM12) | GI50 (SK-MEL-2) | GI50 (CAKI-1) | GI50 (CCRF-CEM) | GI50 (HL-60) | GI50 (UACC-62) | GI50 (NCI-H460) | GI50 (A549) | GI50 (Hs-578T) | GI50 (MDA-MB-435) | GI50 (COLO 205) | GI50 (RPMI-8226) | GI50 (ACHN) | GI50 (SN12C) | GI50 (NCI-H522) | GI50 (Malme-3M)
O=C(CCn1ccnc1[N+](=O)[O-])NCCCn1ccnc1[N+](=O)[O-] | > 100 µM (inactive) | > 100 µM (inactive) | > 100 µM (inactive) | > 100 | > 100 µM (inactive) | > 100 µM (inactive) | > 100 µM (inactive) | > 100 µM (inactive) | > 100 µM (inactive) | > 100 µM (inactive) | > 100 µM (inactive) | > 100 µM (inactive) | > 100 µM (inactive) | > 100 µM (inactive) | > 100 µM (inactive) | > 100 µM (inactive) | > 100 µM (inactive) | > 100 µM (inactive) | > 100 µM (inactive) | > 100 µM (inactive)
c1coc(C2=Nc3cccc4cccc(c34)N2)c1 | 34.6 µM (inactive) | 15 µM (inactive) | > 100 µM (inactive) | 26.5 | 19.6 µM (inactive) | 29.3 µM (inactive) | 35.4 µM (inactive) | 32.1 µM (inactive) | 19.5 µM (inactive) | 35.5 µM (inactive) | 34.8 µM (inactive) | 60.3 µM (inactive) | 55.6 µM (inactive) | 50.8 µM (inactive) | 14.8 µM (inactive) | 71.8 µM (inactive) | 22.1 µM (inactive) | 28.4 µM (inactive) | 11.2 µM (inactive) | 93.8 µM (inactive)
O=C1/C(=C/c2cccc(O)c2)COc2ccccc21 | 8.2 µM (inactive) | 9.86 µM (inactive) | 14.2 µM (inactive) | 1.42 | 2.15 µM (inactive) | 18 µM (inactive) | 3.44 µM (inactive) | 1.59 µM (inactive) | 4.5 µM (inactive) | 3.88 µM (inactive) | 20.8 µM (inactive) | 20 µM (inactive) | 9.77 µM (inactive) | 5.73 µM (inactive) | 13.5 µM (inactive) | 1.15 µM (inactive) | 1.78 µM (inactive) | 8.04 µM (inactive) | 2.51 µM (inactive) | 8.89 µM (inactive)
C=C1C(=O)OC2(C)CCC1CC1OC1(C)CCC=C(C)CCC2O (centres undefined) | > 100 µM (inactive) | 88.3 µM (inactive) | 55 µM (inactive) | 69.3 | > 100 µM (inactive) | 75 µM (inactive) | > 100 µM (inactive) | 7.08 µM (inactive) | 21.7 µM (inactive) | 61.9 µM (inactive) | 46.9 µM (inactive) | > 100 µM (inactive) | 57.5 µM (inactive) | 44.3 µM (inactive) | > 100 µM (inactive) | 53 µM (inactive) | > 100 µM (inactive) | 37.1 µM (inactive) | 64.7 µM (inactive) | > 100 µM (inactive)
CN(C)CCCNc1ccnc2cccc([N+](=O)[O-])c12 | 17.7 µM (inactive) | 15.2 µM (inactive) | 29 µM (inactive) | 8.41 | 12.8 µM (inactive) | 17.2 µM (inactive) | 13.3 µM (inactive) | 28.9 µM (inactive) | 26.7 µM (inactive) | – | 6.5 µM (inactive) | 12.8 µM (inactive) | 26 µM (inactive) | 15.3 µM (inactive) | 3.73 µM (inactive) | 27.3 µM (inactive) | 5 µM (inactive) | 15.8 µM (inactive) | 7.96 µM (inactive) | 8.18 µM (inactive)
COC(=O)[C@@H]1C[C@H]([Se]c2ccccc2)CN1C(=O)OCc1ccccc1 | 48.9 µM (inactive) | 39.8 µM (inactive) | 47.2 µM (inactive) | 30.5 | 30.8 µM (inactive) | 19.5 µM (inactive) | 36 µM (inactive) | 34.1 µM (inactive) | 22.6 µM (inactive) | 15.1 µM (inactive) | 24.8 µM (inactive) | 29.6 µM (inactive) | 64.9 µM (inactive) | 24.3 µM (inactive) | 23.4 µM (inactive) | 24.8 µM (inactive) | 28.1 µM (inactive) | 45.5 µM (inactive) | 46.2 µM (inactive) | 26.2 µM (inactive)
CC1=CC(=O)/C(=C/NC(=S)Nc2ccccc2)C(=O)O1 | > 100 µM (inactive) | > 100 µM (inactive) | > 100 µM (inactive) | > 100 | > 100 µM (inactive) | > 100 µM (inactive) | > 100 µM (inactive) | > 100 µM (inactive) | > 100 µM (inactive) | > 100 µM (inactive) | > 100 µM (inactive) | > 100 µM (inactive) | > 100 µM (inactive) | > 100 µM (inactive) | > 100 µM (inactive) | > 100 µM (inactive) | > 100 µM (inactive) | > 100 µM (inactive) | 53.3 µM (inactive) | –
O=C(NC(Cc1ccccc1)(Cc1ccc(O)cn1)C(=O)O)c1ccccc1 (centres undefined) | > 100 µM (inactive) | > 100 µM (inactive) | > 100 µM (inactive) | > 100 | > 100 µM (inactive) | > 100 µM (inactive) | > 100 µM (inactive) | 25.4 µM (inactive) | 16.5 µM (inactive) | > 100 µM (inactive) | > 100 µM (inactive) | > 100 µM (inactive) | > 100 µM (inactive) | > 100 µM (inactive) | 84.7 µM (inactive) | 49.3 µM (inactive) | > 100 µM (inactive) | – | > 100 µM (inactive) | > 100 µM (inactive)
Nc1nc(Cl)cc(NCC2(CO)CC(Cc3ccccc3)C2)n1 (centres undefined) | 42.3 µM (inactive) | 59.3 µM (inactive) | > 53.5 µM (inactive) | 9.55 | 35.1 µM (inactive) | 22.3 µM (inactive) | > 73.5 µM (inactive) | 29.5 µM (inactive) | 4.71 µM (inactive) | 27.5 µM (inactive) | 22.5 µM (inactive) | 19.1 µM (inactive) | 38.7 µM (inactive) | 19.4 µM (inactive) | 29.8 µM (inactive) | 15 µM (inactive) | 32 µM (inactive) | > 92.3 µM (inactive) | 36.4 µM (inactive) | 29.4 µM (inactive)
COc1cc(CCNC2=CC(=O)c3cccnc3C2=O)ccc1O | 0.736 µM (active) | 1.59 µM (inactive) | 1.72 µM (inactive) | 1.18 | 1.95 µM (inactive) | 1.35 µM (inactive) | 1.39 µM (inactive) | 3.64 µM (inactive) | 2.5 µM (inactive) | 0.957 µM (active) | 1.09 µM (active) | 1.56 µM (inactive) | 0.849 µM (active) | 0.173 µM (active) | 1.6 µM (inactive) | 1.92 µM (inactive) | 1.31 µM (inactive) | 0.944 µM (active) | 0.721 µM (active) | 1.1 µM (active)
COC(=O)C(Cc1ccccc1I)C1=CCC2(CC1)OCCO2 (centres undefined) | 54.5 µM (inactive) | 63.8 µM (inactive) | 25 µM (inactive) | 26.1 | 22.9 µM (inactive) | 25.5 µM (inactive) | 70 µM (inactive) | 41.7 µM (inactive) | 18.7 µM (inactive) | 20 µM (inactive) | 33.3 µM (inactive) | 22.4 µM (inactive) | 26.6 µM (inactive) | 20 µM (inactive) | 28.4 µM (inactive) | 30 µM (inactive) | 36.6 µM (inactive) | – | 21.4 µM (inactive) | 22.9 µM (inactive)
O=[N+]([O-])c1ccc(Sc2c3ccccc3nc3ccccc23)nc1 | 6.14 µM (inactive) | 16.7 µM (inactive) | 6.93 µM (inactive) | 4 | 23.8 µM (inactive) | 20.4 µM (inactive) | 4.88 µM (inactive) | 2.51 µM (inactive) | 4.48 µM (inactive) | 15.3 µM (inactive) | 23.2 µM (inactive) | 26.2 µM (inactive) | 19.4 µM (inactive) | 8.55 µM (inactive) | 2.37 µM (inactive) | 2.21 µM (inactive) | 7.87 µM (inactive) | 13.2 µM (inactive) | 2.73 µM (inactive) | 2.11 µM (inactive)
CC(C)(C)OC(=O)N(CCCN)CCCCN | 0.0673 µM (active) | > 100 µM (inactive) | > 100 µM (inactive) | > 100 | > 100 µM (inactive) | > 100 µM (inactive) | > 100 µM (inactive) | > 100 µM (inactive) | > 100 µM (inactive) | > 100 µM (inactive) | > 100 µM (inactive) | > 100 µM (inactive) | > 100 µM (inactive) | > 100 µM (inactive) | > 100 µM (inactive) | > 100 µM (inactive) | > 100 µM (inactive) | > 100 µM (inactive) | > 100 µM (inactive) | –
CC(=O)O[C@H]1C(=O)[C@@]2(C)[C@H]([C@H](OC(=O)c3cccc([N+](=O)[O-])c3)[C@]3(O)C[C@H](OC(=O)[C@H](O)[C@@H](NC(=O)c4ccccc4)c4ccccc4)C(C)=C1C3(C)C)[C@]1(OC(C)=O)CO[C@@H]1C[C@@H]2O | 0.0122 µM (active) | < 0.0025 µM (active) | 0.0177 µM (active) | 0.438 | 0.0047 µM (active) | 0.0126 µM (active) | 0.241 µM (active) | 0.00479 µM (active) | < 0.0025 µM (active) | 0.0153 µM (active) | 0.00601 µM (active) | 0.014 µM (active) | 0.00322 µM (active) | 0.00336 µM (active) | 0.00474 µM (active) | 0.00341 µM (active) | 0.151 µM (active) | 0.00695 µM (active) | 0.00362 µM (active) | –
